Laboratory results reported in patent US20240058364A1, “A COMPOSITION FOR USE IN THE TREATMENT OF RECTAL AND/OR INTESTINAL INFLAMMATION” (CANNAMORE BIOTECHS LTD., priority 2020, published 2024).

System: IL8 secretion from TNFα induced Caco-2 cells
Experiment: IL8 secretion from TNFα induced Caco-2 cells (HTRF)
Type: cell-based, Human
Settings: 24 h incubation; combinations: CBD 30 μM with NaB or NaP 20 mM
Protocol: Cell lines were cultured according to standard mammalian tissue culture protocols and sterile technique. Human colon epithelial cells, Caco-2, were cultured in high glucose Dulbecco's Modified Eagle Medium (DMEM). Human monocytes THP-1 cells line were cultured in RPMI medium 1640. Both media were supplemented with 10% fetal bovine serum (FBS), 2 mM 1-glutamine and 0.1% penicillin-streptomycin solution in a humidified atmosphere (5% CO2, 95% air, 37° C.) in a 75 cm2 cell culture treated flask (Eppendorf). All the media and supplements were obtained from Biological Industries.
Interleukin 8 (IL 8) detection and quantification was performed with Homogeneous Time-Resolved fluorescence (HTRF).
Caco-2 cells were seeded in a 96 micro well delta surface plates (Eppendorf) at a starting confluence of 2×10^4 cells/well and were incubated for 21 days. Growth medium was replaced every 2-3 days.
After 22 days, the medium was replaced with medium containing both TNFα (as a damage inducer) and the tested sample (as treatment) using specific media containing 5% FBS. After 24 hours incubation, the supernatant was collected and stored for cytokine analysis. The supernatant was diluted up to 5 times in working media to avoid the hook effect.
HTRF assays were performed in white 96-well plate (CisBio Bioassays) with a total working volume of 20 μL. All HTRF reagents were purchased from CisBio Bioassays and reconstituted according to the manufacturer protocols. For each assay 16 μL of diluted supernatants samples were incubate with 4 μL mixed solution containing donor and acceptor antibodies.
After 2 h incubation HTRF signals were measured using SPARK multimode microplate reader with an excitation filter at 320 nm and fluorescence wavelength measurement at 620 and 665 nm, an integration delay of 60 μs and an integration time of 400 μs. Results were analyzed with a two-wavelength signal ratio: [intensity (665 nm)/intensity (620 nm)]*104. Calculation and analysis of cytokines release was performed according to the manufacturer protocols and using the 4PL 1/Y2 formula in GraphPad Prism software.

SMILES	IL8 secretion from TNFα induced Caco2 cells (result in words)
CCCC(=O)[O-].[Na+] [NaB, sodium butyrate]	didn't exhibit any significant effect
CCC(=O)[O-].[Na+] [NaP, sodium propionate]	mild reduction of IL8 secretion
C=C(C)[C@@H]1CCC(C)=C[C@H]1c1c(O)cc(CCCCC)cc1O [CBD, 2-[(6R)-3-Methyl-6-prop-1-en-2-yl-1cyclohex-2-envyl]-5pentylbenzene-1,3-diol, reference compound]	didn't exhibit any significant effect
